In the assay the target is Carbonic anhydrase 1 (Homo sapiens, UniProt P00915).

Consider three molecules from ChEMBL document CHEMBL1777760, “Inhibition studies with anions and small molecules of two novel β-carbonic anhydrases from the bacterial pathogen Salmonella enterica serovar Typhimurium” (Bioorg Med Chem Lett, 2011).

Chain of Carbonic anhydrase 1 (P00915 whole entry): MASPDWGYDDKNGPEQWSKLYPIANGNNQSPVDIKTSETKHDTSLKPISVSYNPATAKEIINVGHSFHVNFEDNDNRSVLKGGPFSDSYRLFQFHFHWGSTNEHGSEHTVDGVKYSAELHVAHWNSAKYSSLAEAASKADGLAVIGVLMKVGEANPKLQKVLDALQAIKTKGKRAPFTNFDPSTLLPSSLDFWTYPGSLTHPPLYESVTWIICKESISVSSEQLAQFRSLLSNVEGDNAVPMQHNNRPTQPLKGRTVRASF

As a reminder, the Ki is the dissociation constant of the complex between target and ligand, obtained from inhibition or displacement. Molecule `CCN(CC)C(=S)S` [DITIOCARB SODIUM] came in with a Ki of 790 µM. `NS(=O)(=O)O` [SODIUM SULFIMIDATE] showed a Ki of 310 µM. `F[B-](F)(F)F.[Na+]` [SODIUM TETRAFLUOROBORATE] came in with a Ki of more than 200000 µM.
